# ChEMBL document CHEMBL1909294, “Translating clinical findings into knowledge in drug safety evaluation--drug induced liver injury prediction system (DILIps)” (PLoS Comput Biol, 2011)
# Experiments:
# [1] = system: Hepatotoxicity;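 for HepSE Combined Scores: combined hepatic side effect score as listed in the training data of the Drug Induced Liver Injury Prediction System (DILIps)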;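 for HepSE bilirubinemia: bilirubinemia hepatic side effect score drawn from the DILIps training data, a prediction system for drug-induced liver injury; call rule not given here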;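 for HepSE cholecystitis: Cholecystitis-related hepatic side effect score drawn from the DILIps (drug-induced liver injury prediction) training data set; call rule not given here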;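 for HepSE elevated liver function tests: hepatic side effect score for raised liver function tests, as recorded in the DILIps training set used for predicting drug-induced liver injury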; for HepSE hepatic failure: call rule not given here;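 for HepSE hepatomegaly: hepatic side effect score for hepatomegaly, taken from the training set of the DILIps drug-induced liver injury prediction system; call rule not given here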;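 for HepSE liver function tests abnormal: hepatic side effect score taken from the DILIps (drug-induced liver injury prediction system) training data, here covering abnormal liver function test findings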
# [2] = system: Hepatotoxicity; remark: listed apart in the source;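 for HepSE Combined Scores: combined hepatic side effect score as listed in the training data of the Drug Induced Liver Injury Prediction System (DILIps)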;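 for HepSE bilirubinemia: bilirubinemia hepatic side effect score drawn from the DILIps training data, a prediction system for drug-induced liver injury; call rule not given here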;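 for HepSE cholecystitis: Cholecystitis-related hepatic side effect score drawn from the DILIps (drug-induced liver injury prediction) training data set; call rule not given here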;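 for HepSE elevated liver function tests: hepatic side effect score for raised liver function tests, as recorded in the DILIps training set used for predicting drug-induced liver injury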; for HepSE hepatic failure: call rule not given here;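 for HepSE hepatomegaly: hepatic side effect score for hepatomegaly, taken from the training set of the DILIps drug-induced liver injury prediction system; call rule not given here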
# [3] = system: Hepatotoxicity; remark: listed apart in the source;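 for HepSE Combined Scores: combined hepatic side effect score as listed in the training data of the Drug Induced Liver Injury Prediction System (DILIps)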;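 for HepSE bilirubinemia: bilirubinemia hepatic side effect score drawn from the DILIps training data, a prediction system for drug-induced liver injury; call rule not given here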;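 for HepSE cholecystitis: Cholecystitis-related hepatic side effect score drawn from the DILIps (drug-induced liver injury prediction) training data set; call rule not given here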;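 for HepSE elevated liver function tests: hepatic side effect score for raised liver function tests, as recorded in the DILIps training set used for predicting drug-induced liver injury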; for HepSE hepatic failure: call rule not given here;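 for HepSE hepatomegaly: hepatic side effect score for hepatomegaly, taken from the training set of the DILIps drug-induced liver injury prediction system; call rule not given here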
# [4] = system: Hepatotoxicity; remark: listed apart in the source;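 for HepSE Combined Scores: combined hepatic side effect score as listed in the training data of the Drug Induced Liver Injury Prediction System (DILIps)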;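 for HepSE bilirubinemia: bilirubinemia hepatic side effect score drawn from the DILIps training data, a prediction system for drug-induced liver injury; call rule not given here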;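 for HepSE cholecystitis: Cholecystitis-related hepatic side effect score drawn from the DILIps (drug-induced liver injury prediction) training data set; call rule not given here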;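 for HepSE elevated liver function tests: hepatic side effect score for raised liver function tests, as recorded in the DILIps training set used for predicting drug-induced liver injury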; for HepSE hepatic failure: call rule not given here;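 for HepSE hepatomegaly: hepatic side effect score for hepatomegaly, taken from the training set of the DILIps drug-induced liver injury prediction system; call rule not given here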
# [5] = system: Hepatotoxicity; remark: listed apart in the source; for HepSE hepatic failure: call rule not given here
# [6] = system: Hepatotoxicity; remark: listed apart in the source; for HepSE hepatic failure: call rule not given here
# [7] = system: Hepatotoxicity; remark: listed apart in the source
# [8] = system: Hepatotoxicity; remark: listed apart in the source
# [9] = system: Hepatotoxicity; remark: listed apart in the source
# [10] = system: Hepatotoxicity; remark: listed apart in the source
# [11] = system: Hepatotoxicity; remark: listed apart in the source
# [12] = system: Hepatotoxicity; remark: listed apart in the source
# [13] = system: Hepatotoxicity; remark: listed apart in the source
# [14] = system: Hepatotoxicity; remark: listed apart in the source
compound,measurement,setting,value
CN(C)CC(c1ccc(O)cc1)C1(O)CCCCC1 (stereo not drawn) [DESVENLAFAXINE],HepSE_bilirubinemia,[1],0
same,HepSE_hepatic failure,[2],0
same,HepSE_hepatic necrosis,[3],0
same,HepSE_Combined Scores,[4],0
same,HepSE_elevated liver function tests,[5],0
same,HepSE_cholecystitis,[6],0
same,HepSE_hepatomegaly,[7],0
same,HepSE_liver function tests abnormal,[8],0
same,HepSE_cholelithiasis,[9],0
same,HepSE_jaundice,[10],0
same,HepSE_hepatitis,[11],0
same,HepSE_cirrhosis,[12],0
same,HepSE_liver fatty,[13],0
same,HepSE_liver disease,[14],0
C[C@@H]1C[C@H]2[C@@H]3CCC4=CC(=O)C=C[C@]4(C)[C@@]3(F)[C@@H](O)C[C@]2(C)[C@@]1(O)C(=O)CO [DEXAMETHASONE],HepSE_bilirubinemia,[1],0
same,HepSE_hepatic failure,[2],0
same,HepSE_hepatic necrosis,[3],0
same,HepSE_Combined Scores,[4],1
same,HepSE_elevated liver function tests,[5],0
same,HepSE_cholecystitis,[6],0
same,HepSE_hepatomegaly,[7],1
same,HepSE_liver function tests abnormal,[8],0
same,HepSE_cholelithiasis,[9],0
same,HepSE_jaundice,[10],0
same,HepSE_hepatitis,[11],0
same,HepSE_cirrhosis,[12],0
same,HepSE_liver fatty,[13],0
same,HepSE_liver disease,[14],0
Cc1cccc([C@H](C)c2cnc[nH]2)c1C [DEXMEDETOMIDINE],HepSE_bilirubinemia,[1]; Liver,1
same,HepSE_hepatic failure,[2]; Liver,0
same,HepSE_hepatic necrosis,[3]; Liver,0
same,HepSE_Combined Scores,[4]; Liver,1
same,HepSE_elevated liver function tests,[5]; Liver,0
same,HepSE_cholecystitis,[6]; Liver,0
same,HepSE_hepatomegaly,[7]; Liver,0
same,HepSE_liver function tests abnormal,[8]; Liver,0
same,HepSE_cholelithiasis,[9]; Liver,0
same,HepSE_jaundice,[10]; Liver,0
same,HepSE_hepatitis,[11]; Liver,0
same,HepSE_cirrhosis,[12]; Liver,0
same,HepSE_liver fatty,[13]; Liver,0
same,HepSE_liver disease,[14]; Liver,0
C[C@@H](CN1CC(=O)NC(=O)C1)N1CC(=O)NC(=O)C1 [DEXRAZOXANE],HepSE_bilirubinemia,[1],0
same,HepSE_hepatic failure,[2],0
same,HepSE_hepatic necrosis,[3],0
same,HepSE_Combined Scores,[4],0
same,HepSE_elevated liver function tests,[5],0
same,HepSE_cholecystitis,[6],0
same,HepSE_hepatomegaly,[7],0
same,HepSE_liver function tests abnormal,[8],0
same,HepSE_cholelithiasis,[9],0
same,HepSE_jaundice,[10],0
same,HepSE_hepatitis,[11],0
same,HepSE_cirrhosis,[12],0
same,HepSE_liver fatty,[13],0
same,HepSE_liver disease,[14],0
CC1=NS(=O)(=O)c2cc(Cl)ccc2N1 [DIAZOXIDE],HepSE_bilirubinemia,[1],0
same,HepSE_hepatic failure,[2],0
same,HepSE_hepatic necrosis,[3],0
same,HepSE_Combined Scores,[4],0
same,HepSE_elevated liver function tests,[5],0
same,HepSE_cholecystitis,[6],0
same,HepSE_hepatomegaly,[7],0
same,HepSE_liver function tests abnormal,[8],0
same,HepSE_cholelithiasis,[9],0
same,HepSE_jaundice,[10],0
same,HepSE_hepatitis,[11],0
same,HepSE_cirrhosis,[12],0
same,HepSE_liver fatty,[13],0
same,HepSE_liver disease,[14],0
O=C(O)Cc1ccccc1Nc1c(Cl)cccc1Cl [DICLOFENAC],HepSE_bilirubinemia,[1]; Liver,0
same,HepSE_hepatic failure,[2]; Liver,1
same,HepSE_hepatic necrosis,[3]; Liver,1
same,HepSE_Combined Scores,[4]; Liver,5
same,HepSE_elevated liver function tests,[5]; Liver,0
same,HepSE_cholecystitis,[6]; Liver,0
same,HepSE_hepatomegaly,[7]; Liver,0
same,HepSE_liver function tests abnormal,[8]; Liver,0
same,HepSE_cholelithiasis,[9]; Liver,0
same,HepSE_jaundice,[10]; Liver,1
same,HepSE_hepatitis,[11]; Liver,1
same,HepSE_cirrhosis,[12]; Liver,1
same,HepSE_liver fatty,[13]; Liver,0
same,HepSE_liver disease,[14]; Liver,0
Cc1onc(-c2c(Cl)cccc2Cl)c1C(=O)N[C@@H]1C(=O)N2[C@@H]1SC(C)(C)[C@@H]2C(=O)O [DICLOXACILLIN],HepSE_bilirubinemia,[1],0
same,HepSE_hepatic failure,[2],0
same,HepSE_hepatic necrosis,[3],0
same,HepSE_Combined Scores,[4],2
same,HepSE_elevated liver function tests,[5],0
same,HepSE_cholecystitis,[6],0
same,HepSE_hepatomegaly,[7],0
same,HepSE_liver function tests abnormal,[8],1
same,HepSE_cholelithiasis,[9],0
same,HepSE_jaundice,[10],0
same,HepSE_hepatitis,[11],1
same,HepSE_cirrhosis,[12],0
same,HepSE_liver fatty,[13],0
same,HepSE_liver disease,[14],0
CCN(CC)CCOC(=O)C1(C2CCCCC2)CCCCC1 [DICYCLOMINE],HepSE_bilirubinemia,[1],0
same,HepSE_hepatic failure,[2],0
same,HepSE_hepatic necrosis,[3],0
same,HepSE_Combined Scores,[4],0
same,HepSE_elevated liver function tests,[5]; Liver,0
same,HepSE_cholecystitis,[6],0
same,HepSE_hepatomegaly,[7],0
same,HepSE_liver function tests abnormal,[8]; Liver,0
same,HepSE_cholelithiasis,[9],0
same,HepSE_jaundice,[10],0
same,HepSE_hepatitis,[11],0
same,HepSE_cirrhosis,[12],0
same,HepSE_liver fatty,[13],0
same,HepSE_liver disease,[14],0
O=c1[nH]cnc2c1ncn2[C@H]1CC[C@@H](CO)O1 [DIDANOSINE],HepSE_bilirubinemia,[1],0
same,HepSE_hepatic failure,[2],1
same,HepSE_hepatic necrosis,[3],0
same,HepSE_Combined Scores,[4],4
same,HepSE_elevated liver function tests,[5],0
same,HepSE_cholecystitis,[6],0
same,HepSE_hepatomegaly,[7],1
same,HepSE_liver function tests abnormal,[8],0
same,HepSE_cholelithiasis,[9],0
same,HepSE_jaundice,[10],0
same,HepSE_hepatitis,[11],1
same,HepSE_cirrhosis,[12],0
same,HepSE_liver fatty,[13],1
same,HepSE_liver disease,[14],0
CCN(CC)C(C)C(=O)c1ccccc1 (stereo not drawn) [DIETHYLPROPION],HepSE_bilirubinemia,[1],0
same,HepSE_hepatic failure,[2],0
same,HepSE_hepatic necrosis,[3],0
same,HepSE_Combined Scores,[4],0
same,HepSE_elevated liver function tests,[5],0
same,HepSE_cholecystitis,[6],0
same,HepSE_hepatomegaly,[7],0
same,HepSE_liver function tests abnormal,[8],0
same,HepSE_cholelithiasis,[9],0
same,HepSE_jaundice,[10],0
same,HepSE_hepatitis,[11],0
same,HepSE_cirrhosis,[12],0
same,HepSE_liver fatty,[13],0
same,HepSE_liver disease,[14],0
O=C(O)c1cc(-c2ccc(F)cc2F)ccc1O [DIFLUNISAL],HepSE_bilirubinemia,[1]; Liver,0
same,HepSE_hepatic failure,[2]; Liver,0
same,HepSE_hepatic necrosis,[3]; Liver,0
same,HepSE_Combined Scores,[4]; Liver,2
same,HepSE_elevated liver function tests,[5]; Liver,0
same,HepSE_cholecystitis,[6]; Liver,0
same,HepSE_hepatomegaly,[7]; Liver,0
same,HepSE_liver function tests abnormal,[8]; Liver,0
same,HepSE_cholelithiasis,[9]; Liver,0
same,HepSE_jaundice,[10]; Liver,1
same,HepSE_hepatitis,[11]; Liver,1
same,HepSE_cirrhosis,[12]; Liver,0
same,HepSE_liver fatty,[13]; Liver,0
same,HepSE_liver disease,[14]; Liver,0
C[C@H]1O[C@@H](O[C@H]2[C@@H](O)C[C@H](O[C@H]3[C@@H](O)C[C@H](O[C@H]4CC[C@@]5(C)[C@H](CC[C@@H]6[C@@H]5C[C@@H](O)[C@]5(C)[C@@H](C7=CC(=O)OC7)CC[C@]65O)C4)O[C@@H]3C)O[C@@H]2C)C[C@H](O)[C@@H]1O [DIGOXIN],HepSE_bilirubinemia,[1],0
same,HepSE_hepatic failure,[2],0
same,HepSE_hepatic necrosis,[3],0
same,HepSE_Combined Scores,[4],0
same,HepSE_elevated liver function tests,[5],0
same,HepSE_cholecystitis,[6],0
same,HepSE_hepatomegaly,[7],0
same,HepSE_liver function tests abnormal,[8],0
same,HepSE_cholelithiasis,[9],0
same,HepSE_jaundice,[10],0
same,HepSE_hepatitis,[11],0
same,HepSE_cirrhosis,[12],0
same,HepSE_liver fatty,[13],0
same,HepSE_liver disease,[14],0
CN1C[C@H](C(=O)N[C@]2(C)O[C@@]3(O)[C@@H]4CCCN4C(=O)[C@H](Cc4ccccc4)N3C2=O)C[C@@H]2c3cccc4[nH]cc(c34)C[C@H]21 [DIHYDROERGOTAMINE],HepSE_bilirubinemia,[1],0
same,HepSE_hepatic failure,[2],0
same,HepSE_hepatic necrosis,[3],0
same,HepSE_Combined Scores,[4],0
same,HepSE_elevated liver function tests,[5],0
same,HepSE_cholecystitis,[6],0
same,HepSE_hepatomegaly,[7],0
same,HepSE_liver function tests abnormal,[8],0
same,HepSE_cholelithiasis,[9],0
same,HepSE_jaundice,[10],0
same,HepSE_hepatitis,[11],0
same,HepSE_cirrhosis,[12],0
same,HepSE_liver fatty,[13],0
same,HepSE_liver disease,[14],0
COc1ccc([C@@H]2Sc3ccccc3N(CCN(C)C)C(=O)[C@@H]2OC(C)=O)cc1 [DILTIAZEM],HepSE_bilirubinemia,[1],0
same,HepSE_hepatic failure,[2],0
same,HepSE_hepatic necrosis,[3],0
same,HepSE_Combined Scores,[4],0
same,HepSE_elevated liver function tests,[5],0
same,HepSE_cholecystitis,[6],0
same,HepSE_hepatomegaly,[7],0
same,HepSE_liver function tests abnormal,[8],0
same,HepSE_cholelithiasis,[9],0
same,HepSE_jaundice,[10],0
same,HepSE_hepatitis,[11],0
same,HepSE_cirrhosis,[12],0
same,HepSE_liver fatty,[13],0
same,HepSE_liver disease,[14],0
OCC(S)CS (stereo not drawn) [DIMERCAPROL],HepSE_bilirubinemia,[1]; Liver,0
same,HepSE_hepatic failure,[2]; Liver,0
same,HepSE_hepatic necrosis,[3]; Liver,0
same,HepSE_Combined Scores,[4]; Liver,0
same,HepSE_elevated liver function tests,[5]; Liver,0
same,HepSE_cholecystitis,[6]; Liver,0
same,HepSE_hepatomegaly,[7]; Liver,0
same,HepSE_liver function tests abnormal,[8]; Liver,0
same,HepSE_cholelithiasis,[9]; Liver,0
same,HepSE_jaundice,[10]; Liver,0
same,HepSE_hepatitis,[11]; Liver,0
same,HepSE_cirrhosis,[12]; Liver,0
same,HepSE_liver fatty,[13]; Liver,0
same,HepSE_liver disease,[14]; Liver,0
CCCCC[C@H](O)/C=C/[C@H]1[C@H](O)CC(=O)[C@@H]1C/C=C\CCCC(=O)O [DINOPROSTONE],HepSE_bilirubinemia,[1],0
same,HepSE_hepatic failure,[2],0
same,HepSE_hepatic necrosis,[3],0
same,HepSE_Combined Scores,[4],0
same,HepSE_elevated liver function tests,[5],0
same,HepSE_cholecystitis,[6],0
same,HepSE_hepatomegaly,[7],0
same,HepSE_liver function tests abnormal,[8],0
same,HepSE_cholelithiasis,[9],0
same,HepSE_jaundice,[10],0
same,HepSE_hepatitis,[11],0
same,HepSE_cirrhosis,[12],0
same,HepSE_liver fatty,[13],0
same,HepSE_liver disease,[14],0
CNCC(O)c1ccc(OC(=O)C(C)(C)C)c(OC(=O)C(C)(C)C)c1 (stereo not drawn) [DIPIVEFRIN],HepSE_bilirubinemia,[1],0
same,HepSE_hepatic failure,[2],0
same,HepSE_hepatic necrosis,[3],0
same,HepSE_Combined Scores,[4],0
same,HepSE_elevated liver function tests,[5],0
same,HepSE_cholecystitis,[6],0
same,HepSE_hepatomegaly,[7],0
same,HepSE_liver function tests abnormal,[8],0
same,HepSE_cholelithiasis,[9],0
same,HepSE_jaundice,[10],0
same,HepSE_hepatitis,[11],0
same,HepSE_cirrhosis,[12],0
same,HepSE_liver fatty,[13],0
same,HepSE_liver disease,[14],0
